Measured values: patent US20190211024A1 (priority 2016, published 2019)
Values joined by “and” are separate entries in the source; they are usually repeats but may differ in a detail not shown here. Identical values can stand only once. Counter-ions that a name gives are not always drawn.

System: influenza virus A/California/07/09 (H1N1) pdm09
Design: species or system mice
Details: mouse, in vivo

Row | SMILES | Time after infection within which the drug must be administered for greatest efficacy [h] | Mice rescued from infection [%] | Index of protection % (100 mg/kg/day, dihydrate) | AST (average life span of animals) (po, 100 mg/kg/day) [cyr.] | Mortality by day: 7 (po, 100 mg/kg/day) | Mortality by day: 8 (po, 100 mg/kg/day) | Mortality by day: 10 (po, 100 mg/kg/day) | Mortality, % (po, 100 mg/kg/day) [%]
1 | CCOC(=O)C1=C[C@@H](OC(CC)CC)[C@H](NC(C)=O)[C@@H](N)C1 [Tamiflu] | ≤ 24 | – | – | – | – | – | – | –
2 | CSc1nc2[nH]nc([N+](=O)[O-])c(=O)n2n1 [Triazavirin, sodium salt of 2-methylthio-6-nitro-1,2,4-triazolo[5,1-c]1,2,4-triazine-7-one, dihydrate] | – | 80 | 63% and 62.5% | 13.7 | 1 | 1 | 1 | 20.0
